From patent US8455397B2, “Penoxsulam as a turfgrass, vineyard and orchard floor herbicide” (Dow AgroSciences, LLC, priority 2005, dated 2013)

Tests used:
[1] = test system: annual sowthistle (SONOL); assay: Pre-emergence orchard floor weeds, greenhouse study; assay type: in vivo, Sonchus oleraceus; conditions: 28 Days After Application
Method: (§1) Greenhouse studies were conducted by seeding species in a loam soil and applying the herbicides to the soil surface using a Cornwall 5 milliliter glass syringe fitted with a TeeJet TN-3 nozzle on an area basis Immediately following herbicide application the pots were irrigated over the top to move the herbicides into the seeding zone. Pots were kept well irrigated throughout the trial. A percent visual weed control assessment was taken 4 weeks after application. Control was determined visually by comparing treated and untreated pots and scored on a 0 to 100 percent scale where 0 corresponds to no control and 100 corresponds to complete kill, or no emergence.

junglerice (ECHCO) = assay: Pre-emergence weed nursery field study; assay type: in vivo, Echinochloa colonum; conditions: weed nursery in the field, 27 Days After Application
Method: (§2) Field studies were conducted in a non-fumigated weed nursery trial. Weed species were planted in single strips with a row planter at 36 centimeter spacing. Plot size was 3.05×9.2 meters, 4 replicate plots per treatment. Weed species were seeded at appropriate depths and later the same day pre-emergent applications were made to the soil surface. Liquid applications were made using a backpack sprayer calibrated to deliver 187 liters per hectare (L/ha). Applications were made in Fresno, Calif. in June. Sprinkler irrigation was applied at regular intervals throughout study period. Control of each weed species in the study site was made 4 weeks after treatment. Control was determined visually by comparing treated and untreated weeds and scored on a 0 to 100 percent scale where 0 corresponds to no control and 100 corresponds to complete kill or no emergence.

dandelion (TAROF) = assay: Granule carrier comparison, pre-emergence greenhouse study; assay type: in vivo, Taraxacum officinale; conditions: pre-emergent greenhouse
Method: (§3) Greenhouse and field studies evaluated the effect of two granule carriers and two particles sizes on the postemergent broadleaf activity of penoxsulam. The two carriers were a 46-0-0 and 28-4-12 fertilizer blend and the particle sizes averaged 0.75 mm and 2.15 mm.
(§4) Greenhouse studies were applied both post and pre-emergence to broadleaf weeds and sedge reared from seed or nutlet in 12.7″ (32.25 cm) by 8.8″ (22.35 cm) flats of a loam soil. Particle size and carrier were evaluated post emergence, carrier comparisons with the smaller particle size of 0.75 was evaluated pre-emergence. Stage of growth of species at post emergence application: PLAMA and TAROF in the 3 to 5 leaf stage, TRFRE in the 3rd tri-foliate stage and CYPES in the 3 to 4 leaf stage. Post emergence trial design was a replicated block, one species per flat, 3 replicate flats per treatment. Granule treatments were uniformly applied to individual flats on an area basis using a common hand-shaker method. Post emergence applications were made to the flat covering both soil and misted foliage. Trial was sub-irrigated daily, and watered over the top 1 time per week starting 7 days after application to simulate a natural rainfall event. Active weed growth was maintained throughout the study period. Weed control of each species in the post emergence study was assessed at 2, 3 and 4 weeks after treatment. Pre-emergence trial design was 2 species per flat, 4 replicate flats, block design. Pre-emergence applications were made to the soil surface using a common hand shaker method on an area basis. Overhead irrigation was maintained throughout the trial. Weed control of each species in the pre-emergence study was assessed at 2, 3, 4 and 5 weeks after application. Control was determined visually by comparing treated and untreated flats and scored on a 0 to 100 percent scale where 0 corresponds to no control and 100 corresponds to complete kill.

[2] = test system: broadleaf plantain (PLAMA); assay: as above; assay type: in vivo, Plantago major L.; conditions: pre-emergent greenhouse
Method: as §3, §4

yellow nutsedge (CYPES) = assay: as above; assay type: in vivo, Cypres esculentus L.; conditions: pre-emergent greenhouse
Method: as §3, §4

[3] = test system: buckhorn plantain (PLALA); assay: Postemergent granule herbicides, turfgrass field studies; assay type: in vivo, Plantago lanceolata L.; conditions: Table I, 3 sites, Penoxsulam 140 gai/Ha, Scotts Plus 2 1682+841 gae/Ha, Trimec 1121+516+112 gae/Ha
Method: (§5) Field studies were conducted in established turfgrass sites containing a natural population of target broadleaf weeds. Replicated trials, containing a minimum of three replications and having individual plots ranging in size from 25 to 50 ft. sq (2.3 to 4.6 square meters), were initiated in the late spring when turf and weeds were actively growing. Granule treatments were uniformly applied to individual plots using a common hand-shaker method. Applications were made in the early morning when dew was present. Natural rainfall and supplemental irrigation were used to maintain healthy turf and active weed growth throughout the study period. Control of each weed species in the study site was made at 2, 4 and 8 weeks after treatment. Control was determined visually by comparing treated and untreated weeds and scored on a 0 to 100 percent scale where 0 corresponds to no control and 100 corresponds to complete kill.

[4] = test system: Virginia buttonweed (DIQVI); assay: as above; assay type: in vivo, Diodia virginiana L.; conditions: Table III, 1 site
Method: as §5

barnyardgrass (ECHCG) = assay: Pre-emergence weed nursery field study; assay type: in vivo, Echinochloa crus-galli; conditions: weed nursery in the field, 27 Days After Application
Method: as §2

[5] = test system: vine and orchard floor weeds; assay: Vine and orchard floor weed control (general statement); assay type: in vivo; conditions: APESV, AMARE, POROL, SETFA, ECHCG, ECHCO, SSYIR, SINAR, EPHHE, EROCI, MALNE, MALPA, SONOL, SENVU
redstem filaree (EROCI) = assay: Pre-emergence orchard floor weeds, greenhouse study; assay type: in vivo, Erodivam cicutarium; conditions: 28 Days After Application
Method: as §1

redroot pigweed (AMARE) = assay: Pre-emergence weed nursery field study; assay type: in vivo, Amaranthus retroflexus; conditions: weed nursery in the field, 27 Days After Application
Method: as §2

[6] = carrier 28-4-12, particle size 0.75 mm, 5.6 gai/Ha
[7] = carrier 28-4-12, particle size 0.75 mm, 11.2 gai/Ha
[8] = carrier 28-4-12, particle size 0.75 mm, 22.4 gai/Ha
[9] = carrier 46-0-0, particle size 0.75 mm, 5.6 gai/Ha
[10] = carrier 46-0-0, particle size 0.75 mm, 11.2 gai/Ha
[11] = carrier 46-0-0, particle size 0.75 mm, 22.4 gai/Ha

COc1cnc(OC)n2nc(NS(=O)(=O)c3c(OCC(F)F)cccc3C(F)(F)F)nc12 [Penoxsulam, 2-(2,2-difluoroethoxy)-N-(5,8-dimethoxy[1,2,4]triazolo[1,5-c]-pyrimidin-2-yl)-6-(trifluoromethyl)benzenesulfonamide]
Pre-emergent Percent Mean Control ([1]; 8.8 gai/Ha): 72%
Pre-emergent Percent Mean Control ([1]; 17.5 gai/Ha): 78%
Pre-emergent Percent Mean Control ([1]; 35 gai/Ha): 82%
Pre-emergent Percent Mean Control ([1]; 70 gai/Ha): 87%
Pre-emergent Percent Mean Control (junglerice (ECHCO); 8.8 gai/Ha): 88%
Pre-emergent Percent Mean Control (junglerice (ECHCO); 17.5 gai/Ha): 94%
Pre-emergent Percent Mean Control (junglerice (ECHCO); 35 gai/Ha): 100%
Pre-emergent Percent Mean Control (junglerice (ECHCO); 70 gai/Ha): 100%
Percent Weed Control 35 DAA (dandelion (TAROF); [6]): 71%
Percent Weed Control 35 DAA (dandelion (TAROF); [7]): 96%
Percent Weed Control 35 DAA (dandelion (TAROF); [8]): 98%
Percent Weed Control 35 DAA (dandelion (TAROF); [9]): 77%
Percent Weed Control 35 DAA (dandelion (TAROF); [10]): 96%
Percent Weed Control 35 DAA (dandelion (TAROF); [11]): 96%
Percent Weed Control 35 DAA [2, 6]: 72%
Percent Weed Control 35 DAA [2, 7]: 82%
Percent Weed Control 35 DAA [2, 8]: 100%
Percent Weed Control 35 DAA [2, 9]: 76%
Percent Weed Control 35 DAA [2, 10]: 87%
Percent Weed Control 35 DAA [2, 11]: 94%
Percent Weed Control 35 DAA (yellow nutsedge (CYPES); [6]): 60%
Percent Weed Control 35 DAA (yellow nutsedge (CYPES); [7]): 70%
Percent Weed Control 35 DAA (yellow nutsedge (CYPES); [8]): 89%
Percent Weed Control 35 DAA (yellow nutsedge (CYPES); [9]): 37%
Percent Weed Control 35 DAA (yellow nutsedge (CYPES); [10]): 57%
Percent Weed Control 35 DAA (yellow nutsedge (CYPES); [11]): 79%
Mean Percent Weed Control ([3]; 4 Weeks After Treatment): 53%
Mean Percent Weed Control ([3]; 8 Weeks After Treatment): 62%
Mean Percent Weed Control ([4]; 4 Weeks After Treatment, 22.4 gai/Ha): 67%
Mean Percent Weed Control ([4]; 4 Weeks After Treatment, 44.9 gai/Ha): 76%
Mean Percent Weed Control ([4]; 4 Weeks After Treatment, 67.3 gai/Ha): 93%
Mean Percent Weed Control ([4]; 4 Weeks After Treatment, 100 gai/Ha): 92%
Mean Percent Weed Control ([4]; 8 Weeks After Treatment, 22.4 gai/Ha): 48%
Mean Percent Weed Control ([4]; 8 Weeks After Treatment, 44.9 gai/Ha): 63%
Mean Percent Weed Control ([4]; 8 Weeks After Treatment, 67.3 gai/Ha): 87%
Mean Percent Weed Control ([4]; 8 Weeks After Treatment, 100 gai/Ha): 78%
Pre-emergent Percent Mean Control (barnyardgrass (ECHCG); 8.8 gai/Ha): 87%
Pre-emergent Percent Mean Control (barnyardgrass (ECHCG); 17.5 gai/Ha): 96%
Pre-emergent Percent Mean Control (barnyardgrass (ECHCG); 35 gai/Ha): 98%
Pre-emergent Percent Mean Control (barnyardgrass (ECHCG); 70 gai/Ha): 100%
effectiveness in controlling vine and orchard floor weeds [5]: effective
Pre-emergent Percent Mean Control (redstem filaree (EROCI); 8.8 gai/Ha): 79%
Pre-emergent Percent Mean Control (redstem filaree (EROCI); 17.5 gai/Ha): 97%
Pre-emergent Percent Mean Control (redstem filaree (EROCI); 35 gai/Ha): 100%
Pre-emergent Percent Mean Control (redstem filaree (EROCI); 70 gai/Ha): 100%
Pre-emergent Percent Mean Control (redroot pigweed (AMARE); 8.8 gai/Ha): 100%
Pre-emergent Percent Mean Control (redroot pigweed (AMARE); 17.5 gai/Ha): 100%
Pre-emergent Percent Mean Control (redroot pigweed (AMARE); 35 gai/Ha): 100%
Pre-emergent Percent Mean Control (redroot pigweed (AMARE); 70 gai/Ha): 100%
